pKi: −log10 of the molar value.
Assay: Inhibition of beta-N-acetylglucosaminidase

CC(C)C(=O)N[C@H]1c2nc(CCc3ccccc3)cn2[C@H](CO)[C@@H](O)[C@@H]1O
pKi: 11.34
